This passage reports IC50 results from the Kinase Knowledgebase extract (Sharma et al. 2016).

Converted amounts (≈) assume the structure as drawn. “And” between values parts separate entries of the source, which are not always exact repeats. Equal entries are not always repeated.

The target of the assay is EGFR (UniProt P00533).
EGFR, sequence (P00533 whole entry, looked up): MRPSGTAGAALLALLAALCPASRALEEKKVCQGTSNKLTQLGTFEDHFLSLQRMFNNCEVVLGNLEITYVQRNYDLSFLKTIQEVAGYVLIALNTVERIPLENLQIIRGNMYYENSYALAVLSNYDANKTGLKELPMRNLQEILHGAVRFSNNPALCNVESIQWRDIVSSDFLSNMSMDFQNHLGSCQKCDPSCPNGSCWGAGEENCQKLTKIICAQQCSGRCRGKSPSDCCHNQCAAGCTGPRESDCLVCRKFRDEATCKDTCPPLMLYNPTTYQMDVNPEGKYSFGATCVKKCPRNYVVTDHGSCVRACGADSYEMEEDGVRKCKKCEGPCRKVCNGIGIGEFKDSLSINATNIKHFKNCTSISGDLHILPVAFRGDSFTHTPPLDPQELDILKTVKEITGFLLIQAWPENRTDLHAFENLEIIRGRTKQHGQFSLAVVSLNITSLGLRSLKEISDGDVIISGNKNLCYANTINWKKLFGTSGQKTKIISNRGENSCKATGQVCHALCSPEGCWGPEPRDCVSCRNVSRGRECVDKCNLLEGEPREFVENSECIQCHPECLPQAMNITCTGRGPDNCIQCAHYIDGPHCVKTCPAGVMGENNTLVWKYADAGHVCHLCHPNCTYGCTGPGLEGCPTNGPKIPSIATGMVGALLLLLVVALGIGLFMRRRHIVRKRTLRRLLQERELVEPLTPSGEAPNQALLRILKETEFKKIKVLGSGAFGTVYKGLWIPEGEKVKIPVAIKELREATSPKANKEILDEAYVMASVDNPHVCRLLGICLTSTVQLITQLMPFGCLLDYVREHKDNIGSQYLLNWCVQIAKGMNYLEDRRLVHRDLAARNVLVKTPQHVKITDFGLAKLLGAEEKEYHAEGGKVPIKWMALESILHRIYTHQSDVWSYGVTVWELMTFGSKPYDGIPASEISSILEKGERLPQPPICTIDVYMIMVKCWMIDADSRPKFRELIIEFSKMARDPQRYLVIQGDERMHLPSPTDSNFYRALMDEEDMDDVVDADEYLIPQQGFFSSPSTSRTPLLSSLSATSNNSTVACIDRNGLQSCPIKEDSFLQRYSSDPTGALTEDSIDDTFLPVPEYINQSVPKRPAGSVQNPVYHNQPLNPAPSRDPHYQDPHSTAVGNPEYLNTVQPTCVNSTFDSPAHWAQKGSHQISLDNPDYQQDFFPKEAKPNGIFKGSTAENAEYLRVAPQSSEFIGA

Consider `COc1ccccc1Nc1nc2ccccc2n1-c1ncnc(Nc2cc(OC)c(OC)c(OC)c2)n1`, for which the half-maximal inhibitory concentration (IC50) (as a rule, the concentration that inhibits the measured activity by half) is more than 4.5 µg/mL. `CN(C)c1ccc(Nc2ncnc(-n3c(N)nc4ccccc43)n2)cc1` came in with a half-maximal inhibitory concentration (IC50) of 2.4 to 3.5 µg/mL (≈ 6.93 to 10.1 µM).

With `COc1cc(Nc2ncnc(-n3c(NCc4ccc(Cl)cc4C)nc4ccccc43)n2)cc(OC)c1OC`, the half-inhibitory concentration (IC50) was in the range of 3.5 to 4.5 µg/mL (≈ 6.58 to 8.46 µM).

The compound `c1ccc(CNc2nc3ccccc3n2-c2ncnc(Nc3cccc(Cn4ccnn4)c3)n2)nc1` yielded a 50% inhibitory concentration (IC50) of 2.4 to 3.5 µg/mL (≈ 5.05 to 7.36 µM). Next, `N#Cc1ccc(Nc2ncnc(-c3cccs3)n2)cc1`: more than 4.5 µg/mL; `COc1cc(C)c(Nc2ncnc(Nc3cc(-c4ccco4)n[nH]3)n2)cc1OC`: 0.4 to 2.4 µg/mL (≈ 1.02 to 6.1 µM); `COc1cc(Nc2ncnc(-n3c(NC4c5ccccc5CC4O)nc4ccccc43)n2)cc(OC)c1OC` (configuration not stated): more than 4.5 µg/mL. With `COc1ccc(Nc2ncnc(Nc3ccc(OCc4ccccc4)cc3)n2)cc1`, the IC50 was more than 4.5 µg/mL. Next, `COc1cc(CNc2ncnc(N(C)c3cccc(Cl)c3)n2)cc(OC)c1OC`: 2.4 to 3.5 µg/mL (≈ 5.77 to 8.42 µM); `CCOC(=O)Cc1ccc(Nc2ncnc(Nc3cc(OC)c(OC)c(OC)c3)n2)cc1`: less than 0.4 µg/mL; `CC(=O)Nc1ccc(Nc2ncnc(N3CCCc4cc(C)ccc43)n2)cc1`: less than 0.4 µg/mL. In the case of `Clc1cccc(Nc2ncnc(-n3cccc3)n2)c1`, the half-inhibitory concentration (IC50) was more than 4.5 µg/mL. As to `c1ccc(-c2ncnc(Nc3ccc(OCCCN4CCOCC4)cc3)n2)cc1`, the IC50 was more than 4.5 µg/mL. In turn, `COc1cc(Nc2ncnc(-n3c(NCc4nc5ccccc5[nH]4)nc4ccccc43)n2)cc(OC)c1OC` had a half-maximal inhibitory concentration (IC50) of more than 4.5 µg/mL. In turn, `COC(=O)c1ccc(-c2cc(Nc3ncnc(Nc4ccc(N5CCOCC5)cc4)n3)[nH]n2)cc1` came in with an IC50 of 3.5 to 4.5 µg/mL (≈ 7.41 to 9.52 µM). Next, `COc1cc(Nc2ncnc(-c3cccnc3NCC3CCCCC3)n2)cc(OC)c1OC`: more than 4.5 µg/mL; `COc1cc(Nc2ncnc(-n3cnc4ccccc43)n2)cc(OC)c1OC`: 3.5 to 4.5 µg/mL (≈ 9.25 to 11.9 µM); `COc1cc(Nc2ncnc(N(C)c3cccc(Cl)c3)n2)cc(OC)c1OC`: less than 0.4 µg/mL. `COC(=O)c1ccc(-c2cc(Nc3ncnc(NCc4ccccc4OC)n3)[nH]n2)cc1`: the IC50 was more than 4.5 µg/mL. The same measure for `COc1cc(Nc2ncnc(-c3cccnc3NC(C)C)n2)ccc1NC(=O)CCCN1CCNCC1`: more than 4.5 µg/mL; for `COc1ccc2c(c1)nc(NCc1ccccn1)n2-c1ncnc(Nc2cc(OC)c(OC)c(OC)c2)n1.COc1ccc2nc(NCc3ccccn3)n(-c3ncnc(Nc4cc(OC)c(OC)c(OC)c4)n3)c2c1`: more than 4.5 µg/mL; for `Clc1ccccc1Nc1ncnc(-n2cccc2)n1`: more than 4.5 µg/mL. Next, `O=c1[nH]c2ccccc2n1-c1ncnc(Nc2cccc(Cl)c2)n1`: 2.4 to 3.5 µg/mL (≈ 7.08 to 10.3 µM); `COc1cc(Nc2ncnc(Nc3cc(C)nn3C)n2)cc(OC)c1OC`: 3.5 to 4.5 µg/mL and > 4.5 µg/mL; `O=c1[nH]c2ccccc2n1-c1ncnc(Nc2ccc(Cl)cc2)n1`: more than 4.5 µg/mL.

For `COc1cc(Nc2ncnc(-c3cccnc3)n2)cc(OC)c1OC`, the concentration for half-maximal inhibition (IC50) is more than 4.5 µg/mL. `COc1cc(Nc2ncnc(-n3c(N)nc4ccccc43)n2)cc(OCCN2CCOCC2)c1OC` gave an IC50 of more than 4.5 µg/mL. Next, `COc1cc(Nc2ncnc(-n3c(NC(C)(C)c4ccccc4)nc4ccccc43)n2)cc(OC)c1OC`: more than 4.5 µg/mL. Next, `COc1cc(Nc2ncnc(-n3c(=O)[nH]c4ccccc43)n2)cc(OC)c1OCCN1CCOCC1`: 2.4 to 3.5 µg/mL (≈ 4.86 to 7.09 µM). As to `COc1cc(Nc2ncnc(N3CCCC4CCCCC43)n2)cc(OC)c1OC` (configuration not stated), the IC50 is less than 0.4 µg/mL.

Turning to `Cc1cccc(Nc2ncnc(-n3cccc3)n2)c1C`, the half-maximal inhibitory concentration (IC50) is more than 4.5 µg/mL. The same measure for `c1ccc(CCNc2ncnc(Nc3ccc4c(cnn4Cc4ccccc4)c3)n2)cc1`: more than 4.5 µg/mL; for `COc1cc(Nc2ncnc(-n3c(NCc4ccc(OC(F)(F)F)cc4)nc4ccccc43)n2)cc(OC)c1OC`: more than 4.5 µg/mL; for `NC(=O)c1cccc(Nc2ncnc(-n3c(=O)[nH]c4ccccc43)n2)c1`: more than 4.5 µg/mL. In turn, `COc1cc(Nc2ncnc(-n3ccc4ccc(Cl)cc43)n2)cc(OC)c1OC` showed an IC50 of 3.5 to 4.5 µg/mL (≈ 8.5 to 10.9 µM).

For `COc1cccc(Nc2ncnc(N(C)c3cccc(Cl)c3)n2)c1`, the half-maximal inhibitory concentration (IC50) is less than 0.4 µg/mL. The compound `Clc1ncnc(Nc2ccc(OCc3ccccc3)cc2)n1` returned an IC50 of more than 4.5 µg/mL.

Regarding `COc1cc(Nc2ncnc(Nc3cc(-c4ccc(Cl)c(Cl)c4)n[nH]3)n2)cc(OC)c1OC`, the IC50 was in the range of 2.4 to 3.5 µg/mL (≈ 4.91 to 7.17 µM).

In turn, `O=C(O)Cc1cccc(Nc2ncnc(Nc3ccc(Cl)cc3F)n2)c1` displayed a half-maximal inhibitory concentration (IC50) of 0.4 to 2.4 µg/mL (≈ 1.07 to 6.42 µM). The same measure for `COc1cc(Nc2ncnc(-n3c(NCc4cccc(Cl)c4)nc4ccccc43)n2)cc(OC)c1OC`: more than 4.5 µg/mL; for `O=c1[nH]c2ccccc2n1-c1ncnc(Nc2cnc3ccccc3c2)n1`: more than 4.5 µg/mL; for `COc1cc(Nc2ncnc(-n3c(Nc4ccc(Cl)cc4)nc4ccccc43)n2)cc(OC)c1OC`: more than 4.5 µg/mL. In turn, `COc1cc(Nc2ncnc(-n3ccnc3Cl)n2)cc(OC)c1OC` came in with an IC50 of 0.4 to 2.4 µg/mL (≈ 1.1 to 6.62 µM). As for `COc1cc(Nc2ncnc(NC(=O)Cc3ccccc3)n2)cc(OC)c1OC`, the concentration for half-maximal inhibition (IC50) lay in the range of 0.4 to 2.4 µg/mL (≈ 1.01 to 6.07 µM). `CN(c1ccc2c(cnn2Cc2ccccc2)c1)c1ncnc(Nc2cccc(Cc3nnn[nH]3)c2)n1` showed an IC50 of less than 0.4 µg/mL.

`COc1cc(Nc2ncnc(-n3c(NCCc4cccnc4)nc4ccccc43)n2)cc(OC)c1OC` showed an IC50 of more than 4.5 µg/mL. Next, `COc1ccc(Nc2ncnc(NC[C@@H]3CCCO3)n2)cc1OC`: more than 4.5 µg/mL; `COc1cc(Nc2ncnc(Nc3cc(-c4ccc(Cl)cc4)n[nH]3)n2)cc(OC)c1OC`: 2.4 to 3.5 µg/mL (≈ 5.29 to 7.71 µM); `COc1cc(Nc2ncnc(N[C@H]3CCCc4ccccc43)n2)cc(OC)c1OC`: 3.5 to 4.5 µg/mL (≈ 8.59 to 11 µM).

For `CC(C)(C)c1cc(Nc2ncnc(Nc3ccc(CO)cc3)n2)[nH]n1`, the IC50 is 0.4 to 2.4 µg/mL (≈ 1.18 to 7.07 µM). On to `COc1cc(Nc2ncnc(-n3c(NCCc4ccncc4)nc4ccccc43)n2)cc(OC)c1OC`, for which the IC50 is more than 4.5 µg/mL. The same measure for `COc1ccc(Nc2nc3ccccc3n2-c2ncnc(Nc3cc(OC)c(OC)c(OC)c3)n2)c(C)c1`: more than 4.5 µg/mL; for `COc1cc(Nc2ncnc(-c3cccnc3NC3CCc4ccccc43)n2)cc(OC)c1OC` (configuration not stated): 2.4 to 3.5 µg/mL (≈ 5.1 to 7.44 µM); for `COc1cc(Nc2ncnc(-n3c(Cl)nc4ccccc43)n2)cc(OC)c1OC`: more than 4.5 µg/mL. Next, `CN(c1cccc(Cl)c1)c1ncnc(Nc2cccc(Cc3nnn[nH]3)c2)n1`: less than 0.4 µg/mL; `COc1ccc(Nc2ncnc(Nc3cccc(Br)c3)n2)cc1OC`: less than 0.4 µg/mL. Next, `COC(=O)c1ccc(-c2cc(Nc3ncnc(Nc4cccc(CC(=O)O)c4)n3)[nH]n2)cc1`: 0.4 to 2.4 µg/mL (≈ 0.898 to 5.39 µM); `Nc1ccc(Nc2ncnc(-c3ccccc3)n2)cc1`: more than 4.5 µg/mL; `NC(=O)c1cccc(Nc2ncnc(-c3cccs3)n2)c1`: more than 4.5 µg/mL.

`NC(=O)c1ccc(Nc2ncnc(-c3ccccc3)n2)cc1` yielded a 50% inhibitory concentration (IC50) of more than 4.5 µg/mL. Next, `O=c1[nH]c2ccccc2n1-c1ncnc(Nc2cccc3cccnc23)n1`: more than 4.5 µg/mL. The same measure for `COc1cc(Nc2ncnc(Nc3n[nH]c(Nc4ccc(Cl)cc4)n3)n2)cc(OC)c1OC`: 2.4 to 3.5 µg/mL (≈ 5.11 to 7.45 µM).

In the case of `COc1cc(Nc2ncnc(-c3cccnc3Nc3cc(Cl)cc(Cl)c3)n2)cc(OC)c1OC`, the concentration for half-maximal inhibition (IC50) was more than 4.5 µg/mL. The same measure for `Nc1nc2ccccc2n1-c1ncnc(Nc2ccc(-c3cnco3)cc2)n1`: 0.4 to 2.4 µg/mL (≈ 1.08 to 6.48 µM). In turn, `CNS(=O)(=O)Cc1ccc(Nc2ncnc(Nc3cc(-c4ccc(C(=O)OC)cc4)n[nH]3)n2)cc1` came in with a concentration for half-maximal inhibition (IC50) of 2.4 to 3.5 µg/mL (≈ 4.85 to 7.08 µM).

In the case of `COc1cc(C)c(Nc2ncnc(-n3c(N)nc4ccccc43)n2)cc1OC`, the 50% inhibitory concentration (IC50) is more than 4.5 µg/mL. The same measure for `Cc1cccc(Nc2ncnc(N(C)c3cccc(Br)c3)n2)c1`: less than 0.4 µg/mL; for `COc1cccc(Nc2nc3ccccc3n2-c2ncnc(Nc3cc(OC)c(OC)c(OC)c3)n2)c1`: more than 4.5 µg/mL; for `COc1ccc(Oc2ncnc(Nc3cc(OC)c(OC)c(OC)c3)n2)cc1`: 2.4 to 3.5 µg/mL (≈ 6.24 to 9.11 µM). Next, `O=C(O)Cc1cccc(Nc2ncnc(Nc3cccc(Br)c3)n2)c1`: less than 0.4 µg/mL; `C=CCNC(=O)c1ccc(-c2cc(Nc3ncnc(Nc4cc(OC)c(OC)c(OC)c4)n3)[nH]n2)cc1`: more than 4.5 µg/mL. The same measure for `COc1cc(Nc2ncnc(-n3ccc4ccccc43)n2)cc(OC)c1OC`: more than 4.5 µg/mL; for `COc1ccc(N(C)c2ncnc(Nc3ccc(OC)c(OC)c3)n2)cc1`: less than 0.4 µg/mL. `COc1cc(Nc2ncnc(-n3c(NCc4ccc(F)cc4Cl)nc4ccccc43)n2)cc(OC)c1OC` showed an IC50 of 3.5 to 4.5 µg/mL (≈ 6.53 to 8.4 µM). The same measure for `N#CCc1ccc(Nc2ncnc(Nc3ccc4c(cnn4Cc4ccccc4)c3)n2)cc1`: less than 0.4 µg/mL; for `COc1cc(Nc2ncnc(NC(=O)NCc3ccccc3)n2)cc(OC)c1OC`: 0.4 to 2.4 µg/mL (≈ 0.975 to 5.85 µM).

With `Oc1cccc(Nc2ncnc(-c3ccccc3)n2)c1`, the 50% inhibitory concentration (IC50) is more than 4.5 µg/mL.

`COc1cc(Nc2ncnc(Nc3ncncn3)n2)cc(OC)c1OC`: the half-maximal inhibitory concentration (IC50) is more than 4.5 µg/mL. The same measure for `c1ccc(-c2cc(Nc3ncnc(Nc4ccc5[nH]ncc5c4)n3)[nH]n2)cc1`: 0.4 to 2.4 µg/mL (≈ 1.08 to 6.5 µM); for `COc1cc(Nc2ncnc(N(CCC(C)C)c3ccc(Cl)cc3)n2)cc(OC)c1OC`: less than 0.4 µg/mL. `Brc1ccc(Nc2ncnc(-n3cccc3)n2)cc1` yielded a 50% inhibitory concentration (IC50) of more than 4.5 µg/mL.

Consider `COc1cc(Nc2ncnc(-n3c(NCc4ccc(C)cc4C)nc4ccccc43)n2)cc(OC)c1OC`, for which the IC50 was > 4.5 µg/mL and 2.4 to 3.5 µg/mL. The same measure for `COc1cc(Nc2ncnc(-n3c(NCc4ccccc4F)nc4ccccc43)n2)cc(OC)c1OC`: more than 4.5 µg/mL; for `NC(=O)c1cccc(Nc2ncnc(-n3c(N)nc4ccccc43)n2)c1`: more than 4.5 µg/mL; for `COc1cc(Nc2ncnc(-n3c(NCc4ccc(Br)cc4)nc4ccccc43)n2)cc(OC)c1OC`: more than 4.5 µg/mL.

`COc1cc(Nc2ncnc(-n3c(NC(CCO)c4ccccc4)nc4ccccc43)n2)cc(OC)c1OC` (configuration not stated) showed a half-maximal inhibitory concentration (IC50) of more than 4.5 µg/mL. Regarding `CCOc1ccc(Nc2ncnc(N(C)c3cccc(Cl)c3)n2)cc1OCC`, the IC50 is less than 0.4 µg/mL. Regarding `Cc1ccc(-c2cc(Nc3ncnc(Nc4cc(C)ccc4C)n3)[nH]n2)cc1`, the IC50 is less than 0.4 µg/mL.

For the compound `COc1cc(Nc2ncnc(-n3c(Nc4ccc5[nH]ccc5c4)nc4ccccc43)n2)cc(OC)c1OC`, the IC50 was in the range of 3.5 to 4.5 µg/mL (≈ 6.88 to 8.85 µM). Compound `COc1cc(Nc2ncnc(Nc3ccc(O)cc3Cl)n2)cc(OC)c1OC` showed a half-inhibitory concentration (IC50) of 0.4 to 2.4 µg/mL (≈ 0.991 to 5.94 µM). The same measure for `COc1cc(Nc2ncnc(-n3cc(C)c4ccccc43)n2)cc(OC)c1OC`: more than 4.5 µg/mL. Turning to `COc1ccc(Nc2ncnc(N(C)C3CCN(Cc4ccccc4)C3)n2)cc1OC` (configuration not stated), the 50% inhibitory concentration (IC50) is more than 4.5 µg/mL.
